This note sets out measurements from US20220226270A1, “VERY-LONG-CHAIN POLYUNSATURATED FATTY ACIDS, ELOVANOID HYDROXYLATED DERIVATIVES, AND METHODS OF USE” (Board of Supervisors of Louisiana State University and …, priority 2019, published 2022).

The structures appear in SMILES notation.

For one test, the system named is ARPE-19 cells. The test can be described thus: UOS-induced apoptosis in ARPE-19 cells (Hoechst-positive pyknotic cells). The class given is cell-based, human. Conditions: for protection against UOS: free fatty acids (FIGS. 7A and 7B); for UOS-induced apoptosis: 200 nM (FIG. 10C); for UOS-induced apoptotic cell death, concentration-dependent: 50-500 nM (FIG. 10G); for concentration of highest inhibition of UOS-induced apoptosis / concentration of lowest inhibition of UOS-induced apoptosis: tested 50-500 nM. As for the experimental part: ARPE19 cells at 75-80% confluence (72 h growth in DMEM/F12+10% FBS) in 6-well plates were serum-starved for 8 h before exposure. The serum-starved cells were treated with TNF-α (Sigma-Aldrich, St. Louis, Mo.) (10 ng/ml) and H2O2 (600 μM) to induce oxidative stress and challenged with increasing concentrations (50-500 nM) of VLC-PUFA (C32:6n3 and C34:6n3) simultaneously with oxidative stress for 16 h (apoptosis) and 6 h (Western-blot) before detection of apoptosis and harvesting for protein analysis. In some experiments, DHA at a concentration of 100 nM and 15-LOX-1 inhibitor PD146176 at a concentration of 1 μM was added to treat the RPE cells under stress. Cell extracts were made and protein concentrations adjusted by Bio-Rad (Hercules, Calif.) protein reagent and used for Western blot analysis.
To assess cell death, hRPE and ARPE-19 cells were fixed with methanol for 15 mins, washed with 1× PBS then loaded with 2 μM Hoechst dissolved in a Locke's solution (Promega) and incubated for another 15 mins before imaging. Cells were then viewed by using a Zeiss LSM 510 confocal microscope under UV fluorescence. Images were recorded and cell apoptosis was assessed by using an automated unbiased method.

Test [1] relates to Sprague-Dawley rats, middle cerebral artery occlusion (MCAo). As to the kind of experiment: Experimental ischemic stroke, 2 h middle cerebral artery occlusion (MCAo). The class given is in vivo, rat. Conditions: for reduction of total lesion volume compared to CSF-treated group: T2WI on day 7, 5 μg/50 μl into right lateral ventricle 1 h after 2 h of MCAo; for IgG staining intensity compared with the CSF-treated group / IgG staining in the cortex: at 7 days; for IgG staining intensity compared with the CSF-treated group: ipsilateral hemisphere; for IgG immunoreactivity in cortex, subcortex and whole hemisphere (total): versus the vehicle group (FIG. 22B). As for the experimental part: Middle cerebral artery occlusion and cannula implantation into the right lateral ventricle: Male Sprague-Dawley rats (Charles River Lab., Wilmington, Mass.) weighing 280-340 g were fasted overnight but allowed free access to water. Atropine sulfate (0.5 mg/kg, i.p.) was injected 10 mins before anesthesia. Anesthesia was induced with 3% isoflurane in a mixture of 70% nitrous oxide and 30% oxygen. All rats were orally intubated and mechanically ventilated. During ventilation, the animals were paralyzed with pancuronium bromide (0.6 mg/kg, i.p.). The catheters were implanted into the right femoral artery and vein for the blood sampling and infusion of drug. Serial analyses of arterial blood gases, plasma glucose, arterial blood pressure and heart beating rate were conducted before and during surgical procedure. Rectal (CMA/150 Temperature Controller, CMA/Microdialysis AB, Stockholm, Sweden) and cranial (temporalis muscle; Omega Engineering, Stamford, Conn.) temperatures were closely monitored before, during and after MCAo. Rectal temperature and body weight were monitored daily until sacrifice.
Rats underwent 2 h of right middle cerebral artery occlusion (MCAo) by an intraluminal-filament. In brief, the right common carotid artery (CCA) bifurcation was exposed through a midline neck incision and the occipital artery branches of the external carotid artery were isolated, ligated and dissected. After careful isolation of the internal carotid artery (ICA), a 3-0 monofilament coated with poly-L-lysine was advanced through the ICA to the MCA until mild resistance was felt. The neck incision was closed with a silk suture and the animals were then allowed to recover. After 2 h of MCAo, rats were re-anesthetized with the same anesthetic combination. Temperature probes were re-inserted, and intraluminal sutures were carefully removed. The animals given free access to food and water for 7 days.
Thirty minutes after suture removal, a brain infusion cannula was implanted into the right lateral ventricle for treatment administration in each rat. Rats were anesthetized with 3% isoflurane and were secured to a stereotaxic apparatus with skull leveled between bregma and lambda. A sterile stainless steel cannula (5-mm long) was implanted into the lateral ventricle using the stereotaxic coordinates (0.2 mm caudal to bregma, 2 mm lateral to midline, and 5 mm below the dura). Cannulas were removed after treatment was completed.
Treatment: Elovanoids (ELV) as sodium salts (Na) or methyl esters (Me) were dissolved in artificial cerebral spinal fluid (CSF) and administered into right lateral ventricle 1 hour after 2 h of MCAo. The following ELVs were used: ELV-N32-Na, ELV-N32-Me, ELV-N34-Na and ELV-N34-Me (5 μg/50 μl) or CSF (50 μl). All treatments were administered by a researcher blinded to the treatment groups.
Neurological/Behavioral Tests: Behavioral tests were performed by an observer blinded to the treatment groups at 60 mins (during MCAo) and then on days 1, 2, 3 and 7 after MCAo. The battery consisted of two tests that have been used previously to evaluate various aspects of neurologic function: (1) the postural reflex test, to examine upper body posture while the animal is suspended by the tail; and (2) the forelimb placing test, to examine sensorimotor integration in forelimb placing responses to visual, tactile and proprioceptive stimuli. Neurological function was graded on a scale of 0-12 (normal score=0, maximal score=12).
Magnetic resonance imaging (MRI) acquisition and analysis of total lesion, core and penumbra volumes: High resolution ex vivo MRI was performed on 4% paraformaldehyde-fixed brains on day 7 using an 11.7T Bruker Advance 8.9 cm horizontal bore instrument equipped with an 89 mm (ID) receiver coil (Bruker Biospin, Billerica, Mass.). T2 weighted images (T2WI), diffusion weighted images (DWI), 3D volumes, and apparent diffusion coefficient (ADC) maps were collected. T2 and ADC maps were computed from T2WI and DWI, respectively. […]

For the compound `CC/C=C\C/C=C\C/C=C\C/C=C\C/C=C\C/C=C\CCCCCCCCCCCCC(=O)O` [32:6n3, (14Z,17Z,20Z,23Z,26Z,29Z)-dotriaconta-14,17,20,23,26,29-hexaenoic acid], the “protection against UOS” value in the test on ARPE-19 cells was “elicit protection”.

`CC/C=C\C/C=C\C/C=C\C/C=C\C/C=C\C/C=C\CCCCCCCCCCCCCCC(=O)O` [34:6n3, (16Z,19Z,22Z,25Z,28Z,31Z)-tetratriaconta-16,19,22,25,28,31-hexaenoic acid]: the “protection against UOS” value in the test on ARPE-19 cells is given as “elicit protection”.

`CC/C=C\C[C@H](O)\C=C/C=C/C=C/[C@H](O)C/C=C\C/C=C\CCCCCCCCCCCCC(=O)OC` [ELV-N32-Me, methyl (14Z,17Z,20R,21E,23E,25Z,27S,29Z)-20,27-dihydroxydotriaconta-14,17,21,23,25,29-hexaenoate]: in test [1], the “reduction of total lesion volume compared to CSF-treated group” value (“reduction of total lesion volume” for short) was determined as 56% and the “IgG staining intensity compared with the CSF-treated group” value is “similar”.

For `CC/C=C\C[C@H](O)\C=C/C=C/C=C/[C@H](O)C/C=C\C/C=C\CCCCCCCCCCCCC(=O)[O-].[Na+]` [ELV-N32-Na, sodium (14Z,17Z,20R,21E,23E,25Z,27S,29Z)-20,27-dihydroxydotriaconta-14,17,21,23,25,29-hexaenoate], in the test on ARPE-19 cells, the UOS-induced apoptosis entry is “attenuation of apoptosis”; the “UOS-induced apoptotic cell death, concentration-dependent” value is “attenuated”; the “concentration of highest inhibition of UOS-induced apoptosis” value amounted to 500 nM; the “concentration of lowest inhibition of UOS-induced apoptosis” value was found to be 50 nM. In test [1], the “reduction of total lesion volume” value was found to be 60% and the “IgG staining intensity compared with the CSF-treated group” value is listed as “similar”.

As to `CC/C=C\C[C@H](O)\C=C/C=C/C=C/[C@H](O)C/C=C\C/C=C\CCCCCCCCCCCCCCC(=O)OC` [ELV-N34-Me, methyl (16Z,19Z,22R,23E,25E,27Z,29S,31Z)-22,29-dihydroxytetratriaconta-16,19,23,25,27,31-hexaenoate], in the test on ARPE-19 cells, the “UOS-induced apoptotic cell death, concentration-dependent” value is on record as “attenuated”; the “concentration of highest inhibition of UOS-induced apoptosis” value was determined as 500 nM; the “concentration of lowest inhibition of UOS-induced apoptosis” value turned out to be 50 nM. In test [1], the “reduction of total lesion volume” value is 91%; the “IgG staining in the cortex” value is “significantly less IgG staining”; the “IgG immunoreactivity in cortex, subcortex and whole hemisphere (total)” value is listed as “significantly reduced”.

`CC/C=C\C[C@H](O)\C=C/C=C/C=C/[C@H](O)C/C=C\C/C=C\CCCCCCCCCCCCCCC(=O)[O-].[Na+]` [ELV-N34-Na, sodium (16Z,19Z,22R,23E,25E,27Z,29S,31Z)-22,29-dihydroxytetratriaconta-16,19,23,25,27,31-hexaenoate]: the UOS-induced apoptosis result with ARPE-19 cells is given as “attenuation of apoptosis”. In test [1], the “reduction of total lesion volume” value amounted to 99%; the “IgG staining in the cortex” value is on record as “significantly less IgG staining”; the “IgG immunoreactivity in cortex, subcortex and whole hemisphere (total)” value is “significantly reduced”.
